The record followed here is PubChem BioAssay (NCI).

Holding throughout (assay): inhibition of tumour cell growth, NCI panel, 48 h
The subject of assay [1] is A498 renal.
Assay [2] has as its system HL-60(TB) leukemia.
In assay [3] the test system is OVCAR-8 ovarian.
Assay [4] deals with NCI-H522 lung.
The subject of assay [5] is UACC-62 melanoma.
Assay [6] deals with OVCAR-4 ovarian.
The subject of assay [7] is OVCAR-3 ovarian.
The subject of assay [8] is HCT-116 colon.
Assay [9] deals with MALME-3M melanoma.

Molecules are shown by their SMILES.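 Growth conditions: 96-well plates. Treatment: test compound, 48 hours, 5 concentrations. Analysis: linear interpolation between bracketing concentrations; unreached endpoints set to highest concentration. GI50 is the concentration that inhibits growth by half. The concentration for full growth arrest is given as TGI.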

On to `O=c1nc(-c2ccccc2)c2c3c(cccn13)CCC2`, for which the TGI in [1], in assay [2], in assay [3], in assay [4], in assay [5] and in assay [6] was greater than 100 µM throughout. In addition, the TGI in [7], in [8] and in assay [9] was greater than 100 µM each time.

For `Cc1cc(C)c2c(c1)CN1CN2Cc2cc(C)cc(C)c21`, the TGI worked out at 48.8 µM in assay [2]; 39.5 µM in assay [3]; 53.4 µM in assay [4]; 35.9 µM in [5]; 50.8 µM in [6]; 28.3 µM in assay [7]. This compound also yielded a TGI in assay [8] of 37.2 µM.

Take `Fc1cccc(Cl)c1C1SCc2nc3ccccc3n21` (stereo not drawn): the TGI in assay [1] is greater than 100 µM; in [2], 33.2 µM; in assay [3], greater than 100 µM; in assay [4] it was 87 µM; in assay [5] it was 37.5 µM; in assay [6] it was greater than 100 µM. Besides, the values for the TGI in assay [7], in assay [8] and in assay [9] were 53.2 µM, 55.1 µM and 45.8 µM, respectively.

Regarding `CC(C)N(C(C)C)[PH+]1O[PH+](N(C(C)C)C(C)C)O[PH+](N(C(C)C)C(C)C)O[PH+](N(C(C)C)C(C)C)O[PH+](N(C(C)C)C(C)C)O1.[C-]#[O+].[C-]#[O+].[C-]#[O+].[C-]#[O+].[C-]#[O+].[C-]#[O+].[C-]#[O+].[Cr].[Cr]` (stereo not drawn), the GI50 in assay [1], in [2], in assay [3], in [4], in assay [5] and in [6] was greater than 100 µM throughout. The GI50 in assay [7], in [8] and in assay [9] was greater than 100 µM in each case. Further, the TGI in [1], in assay [2], in assay [3], in assay [4], in assay [5] and in [6] was greater than 100 µM throughout. Also, the TGI in assay [7], in assay [8] and in assay [9] was greater than 100 µM throughout.

Take `Cc1cc(O)c2c(c1)C(O)(c1ccc3c(c1O)C(=O)c1c(O)cc(C)cc1C3(O)C1OC(CO)C(O)C(O)C1O)c1cccc(O)c1C2=O` (stereo not drawn): the TGI in assay [1] was 26.5 µM; in assay [2], 46.8 µM; in [3] it was 34 µM; in assay [5] it was 25.3 µM; in [6] it was 26.4 µM; in [7], 22.6 µM. Besides, the figures for the TGI in [8] and in [9] were 24.1 µM and 25.5 µM, respectively.

Consider `Cc1nc2c(n1CC(C)(C)C)C(=O)c1ccccc1C2=O`, for which the TGI in [2], in [3], in assay [4], in [5], in assay [6] and in assay [7] was greater than 100 µM throughout. Moreover, the TGI in assay [8] and in assay [9] was greater than 100 µM in each case.

Turning to `O=C(C(=O)c1ccc(Cc2ccc(C(=O)C(=O)c3ccccc3)cc2)cc1)c1ccccc1`, the TGI in [1], in assay [2], in assay [3], in [4], in assay [5] and in assay [6] was greater than 100 µM each time. For the same compound, the TGI in [7], in assay [8] and in assay [9] was greater than 100 µM throughout.

For the compound `O=C1[C@@H](c2ccc(Cl)cc2)[C@H]2CC=C[C@H]2N1O`, the TGI in [2], in assay [3], in assay [4], in assay [5], in assay [7] and in [9] was greater than 100 µM in each case.

`O=[N+]([O-])c1ccc(N=Nc2c(O)[nH]c3ccc([N+](=O)[O-])cc23)cc1`: the TGI in assay [1] was greater than 100 µM; in assay [3], 35 µM; in assay [4] it was 50.4 µM; in [5], 36.5 µM; in assay [6] it was 38.6 µM; in assay [7] it was 42 µM.

Turning to `COC(=O)C1=CCON(c2ccccc2)C1c1ccccc1` (stereo not drawn), the TGI is 61.7 µM in assay [2]; 93.8 µM in [4]; greater than 100 µM in assay [5]; greater than 100 µM in assay [7]; greater than 100 µM in assay [9].

In the case of `COc1ccc([C@H]2CC(=O)N3CCCC3N2)cc1` (stereo partly drawn), the TGI in assay [1], in assay [2], in [3], in assay [4], in assay [5] and in [6] was greater than 100 µM each time. For the same compound, the TGI in assay [8] and in [9] was greater than 100 µM in each case.

For the compound `Cc1c(C)c2cc3c(=O)ccoc3c(C)c2oc1=O`, the TGI in [1], in assay [2], in assay [3], in assay [4], in assay [5] and in assay [7] was greater than 100 µM throughout. Further, the TGI in assay [9] is greater than 100 µM.

In the case of `CC(=O)N(CCN)CCN`, the TGI in [1] is greater than 10 µM; in assay [2] it was greater than 10 µM; in [3], greater than 10 µM; in assay [4], greater than 10 µM; in assay [5] it was greater than 100 µM; in assay [6], greater than 10 µM. Besides, the TGI in [7] and in assay [8] was greater than 10 µM throughout.

On to `O=C1c2ccccc2N2OC3(N4CCCC4)CCCC3C12c1ccccc1` (stereo not drawn), for which the TGI in assay [1], in assay [2], in assay [3], in assay [4], in assay [5] and in [6] was greater than 100 µM each time. Besides, the TGI in assay [8] and in assay [9] was greater than 100 µM throughout.

`Clc1ccc([O][In]([O]c2ccc(Cl)cn2)[O]c2ccc(Cl)cn2)nc1`: the GI50 in [3], in assay [5], in assay [6], in assay [7], in assay [8] and in assay [9] was greater than 100 µM each time. In addition, the TGI in assay [3], in assay [5], in assay [6], in assay [7], in [8] and in assay [9] was greater than 100 µM each time.
